Values quoted from earlier work, collected in patent publication US12357592B2, “Compositions and methods for monitoring the treatment of breast disorders” (priority 2018, dated 2025).

Tested on: breast cancer
Conditions: tamoxifen as prevention, given to healthy women; background statement

For CC/C(=C(\c1ccccc1)c1ccc(OCCN(C)C)cc1)c1ccccc1 [Tamoxifen, (Z)-2-[4-(1,2-diphenyl-1-butenyl)phenoxy]-N,N-dimethylethanamine], the “reduce the risk of breast cancer” value is listed as no more than 50%.
